According to patent publication US12264156B2, “Compounds and pharmaceutical compositions thereof for the treatment of diseases” (GALAPAGOS NV, priority 2018, dated 2025):

What was measured:
SIK1 = molecular target: T1, SIK1 (Homo sapiens, UniProt P57059); assay: ADP-Glo kinase assay, SIK1; format: biochemical; conditions: ADP-Glo SIK kinase assay
T1 construct: purchased Carna Biosciences 02-131
Outline: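 ADP-Glo, RT throughout. Enz/substrate + ATP, 120 min; ADP-Glo reagent 40 min (ATP depletion); detection reagent 30 min; luminescence read. Neg ctrl 1% DMSO, pos ctrl 10 μM staurosporine, final concs.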

SIK2 = molecular target: T2, SIK2 (Homo sapiens, UniProt Q9H0K1); assay: ADP-Glo kinase assay, SIK2; format: biochemical; conditions: ADP-Glo SIK kinase assay
T2 construct: purchased ThermoFisher Scientific PV4792
Outline: (§1)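 Kinase reactions (enzyme-substrate mix plus ATP) ran 120 min at room temperature for each of SIK3 and SIK2. Signal came from ADP-Glo: unconsumed ATP removed (40 min), ADP reconverted and detected by luciferase/luciferin (30 min), with luminescence tracking kinase activity. 10 μM staurosporine and 1% DMSO (final) served as controls.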

SIK3 = molecular target: T3, SIK3 (Homo sapiens, UniProt Q9Y2K2); assay: ADP-Glo kinase assay, SIK3; format: biochemical; conditions: ADP-Glo SIK kinase assay
T3 construct: purchased SignalChem S12-11G-100
Outline: as §1

[1] = test system: LPS-induced TNFα in monocytes; assay: Monocytes assay: LPS-triggered TNFα (ELISA); format: cell-based, human; conditions: Homo sapiens, Monocyte, LPS 200 ng/mL, supernatant after 4 h
Experimental: (§2) SIK inhibition inhibits TNFα and increases IL-10 release in LPS triggered monocyte-derived macrophages (MdM) and dendritic cells (MdDCs) (Clark et al. 2012; Sundberg et al. 2014; Ozanne et al. 2015). This assay evaluates illustrative compounds of the invention for their inhibition of LPS-induced TNFα and LPS triggered IL-10 secretion in monocytes.
(§3) PBMCs are isolated from human blood samples (buffycoats). The buffy coat is aseptically transferred into a 50 mL Falcon tube, and diluted 1/2 in PBS. Falcon tubes are filled with 20 mL Lymphoprep™, on top of which 25 mL of the buffy coat is carefully added, tubes are centrifuged for 35 min at 400 g in temperature controlled centrifuge, without brake, at 25° C. PBMCs are aspirated from the white interface layer between sample and Lymphoprep™. PBMCs are washed five times in PBS. Cells are resuspended in RPMI 1640 complete medium supplemented with 10% FBS, 1% P/S, and cell density is determined using a hematologic analyzer (Sysmex XS-500i).
(§4) PBMCs are centrifuged at 300×g for 10 min and resuspended at a density of 1.0*10^7 cells/80 μL Miltenyi buffer (PBS, pH 7.4, 1% FBS, 2 mM EDTA).
(§5) Starting from this point of the protocol all steps are performed on ice. 20 μL of CD14+ micro-beads are added per 1.0*10^7 cells, the tube is mixed and incubated for 15 min in the fridge at 4° C. Cell suspension volume is adjusted to total volume of 100 mL using Miltenyi buffer, mixed gently and subsequently centrifuged for 10 min at 300×g. Supernantant is discarded and cell pellet is resuspended in 12 mL of Miltenyi buffer.
(§6) Four LS columns are placed in the MACS Separator (magnet) from Miltenyi Biotec, and are prewet by rinsing with 3 mL of MACS buffer per column. Three mL of cell suspension is added onto the column (max 1*10^8 of labelled cells/column), and columns are subsequently washed 3 times with 3 mL of Miltenyi buffer.
(§7) The columns are removed from the magnets, and 5 mL of Miltenyi buffer are added to the column to flush out the CD14+ fraction by pushing the plunger into the column. The flushed fractions are collected in a fresh 50 mL Falcon and volume is adjusted to 30 mL using Miltenyi buffer, cells are centrifuged for 10 min at 300×g. The obtained cell pellet is resuspended in 10 mL RPMI w/o FBS, and cell density is determined using a hematologic analyser (Sysmex XS-500i). 100 000 cells are seeded in 80 μL per well of a 96-well plate in RPMI 1640 medium supplemented with 10% FBS, 1% P/S.
(§8) A compound dilution plate is made in 100% DMSO by 3-fold dilution of 10 mM stock solution. An intermediate dilution plate (10× final concentration) is made by diluting the compound dilution plate 50-fold in RPMI medium.
(§9) 10 μL of the 10× final concentration compound is added to the cells and incubated for 1 h at 37° C. before addition of trigger. No trigger conditions/trigger conditions are spiked with equal final DMSO concentrations of 0.2% DMSO. 10 μL of 10×LPS (final conc. 200 ng/mL) solution are added to all wells except for the ‘no trigger wells’ where 10 μL medium is added. Supernatant is collected after 4 h of LPS triggering.
A Lumitrac 600 Greiner 384-well plate is coated with 40 μL of capture antibody (BD Pharmingen, Cat #551220) reaching a final concentration of 1 μg/mL in 1×PBS and stored overnight at 4° C.
The plate is then washed once with PBST (PBS+0.05% Tween20) and once with PBS followed by the addition of 100 μL of blocking buffer (1% Bovine Serum Albumin (BSA)−5% Sucrose) and plates are sealed and incubated for at least 4 h at RT. After washing the plate once with PBST and once with PBS, […]. Plates are washed twice with PBST, and once with PBS, after which 35 μL of the detection antibody is added (final concentration 0.25 μg/mL diluted in dilution buffer) and plates are incubated for at least 2 h at RT. […]

[2] = test system: LPS triggered IL-10 secretion in monocytes; assay: Monocytes assay: LPS-triggered IL-10 (ELISA); format: cell-based, human; conditions: LPS 200 ng/mL, supernatant after 4 h, maximal fold change vs LPS only
Experimental: as §2, §3, §4, §5, §6, §7, §8, §9
A Lumitrac 600 Greiner 384-well plate is coated with 40 μL of capture antibody (final concentration of 1 μg/mL in 1×PBS) and stored overnight at 4° C. The next day the plate is washed three times with PBST (PBS+0.05% Tween20) and once with PBS followed by the addition of 100 μL of blocking buffer (1% BSA−5% Sucrose) and plates are sealed and incubated for at least 4 h at RT. After washing the plate once with PBST and once with PBS, 40 μL of standard or sample are added (IL-10 standard curve is prepared using a 1/2 serial dilution starting from […]; dilutions are made in dilution buffer (PBS+1% BSA)). Plates are washed twice with PBST, and once with PBS, after which 35 μL of the detection antibody is added (final concentration 0.143 μg/mL diluted in dilution buffer) and plates are incubated for at least 2 h at RT. […]

T1 sequence (P57059 whole entry): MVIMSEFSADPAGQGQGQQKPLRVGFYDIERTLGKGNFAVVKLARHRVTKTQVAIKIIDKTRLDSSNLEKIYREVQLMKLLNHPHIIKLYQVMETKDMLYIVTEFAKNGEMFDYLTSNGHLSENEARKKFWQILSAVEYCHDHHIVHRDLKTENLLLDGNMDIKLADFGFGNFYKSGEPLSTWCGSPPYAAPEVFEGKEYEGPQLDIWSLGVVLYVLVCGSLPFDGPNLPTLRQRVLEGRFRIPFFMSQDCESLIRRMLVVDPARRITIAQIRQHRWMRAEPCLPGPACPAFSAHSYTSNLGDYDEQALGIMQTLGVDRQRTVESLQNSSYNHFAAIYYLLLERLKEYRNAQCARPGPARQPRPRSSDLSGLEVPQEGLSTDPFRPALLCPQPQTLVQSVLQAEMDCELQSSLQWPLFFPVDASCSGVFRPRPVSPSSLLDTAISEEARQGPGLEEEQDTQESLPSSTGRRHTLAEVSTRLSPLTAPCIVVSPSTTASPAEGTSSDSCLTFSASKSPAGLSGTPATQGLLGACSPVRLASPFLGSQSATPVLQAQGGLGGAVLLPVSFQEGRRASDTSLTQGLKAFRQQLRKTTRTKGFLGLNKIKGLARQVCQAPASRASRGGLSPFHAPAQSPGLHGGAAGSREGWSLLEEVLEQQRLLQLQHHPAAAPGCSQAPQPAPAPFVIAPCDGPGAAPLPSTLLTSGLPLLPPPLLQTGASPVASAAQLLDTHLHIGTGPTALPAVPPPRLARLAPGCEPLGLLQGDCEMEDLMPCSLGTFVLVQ
T3 sequence (Q9Y2K2 whole entry): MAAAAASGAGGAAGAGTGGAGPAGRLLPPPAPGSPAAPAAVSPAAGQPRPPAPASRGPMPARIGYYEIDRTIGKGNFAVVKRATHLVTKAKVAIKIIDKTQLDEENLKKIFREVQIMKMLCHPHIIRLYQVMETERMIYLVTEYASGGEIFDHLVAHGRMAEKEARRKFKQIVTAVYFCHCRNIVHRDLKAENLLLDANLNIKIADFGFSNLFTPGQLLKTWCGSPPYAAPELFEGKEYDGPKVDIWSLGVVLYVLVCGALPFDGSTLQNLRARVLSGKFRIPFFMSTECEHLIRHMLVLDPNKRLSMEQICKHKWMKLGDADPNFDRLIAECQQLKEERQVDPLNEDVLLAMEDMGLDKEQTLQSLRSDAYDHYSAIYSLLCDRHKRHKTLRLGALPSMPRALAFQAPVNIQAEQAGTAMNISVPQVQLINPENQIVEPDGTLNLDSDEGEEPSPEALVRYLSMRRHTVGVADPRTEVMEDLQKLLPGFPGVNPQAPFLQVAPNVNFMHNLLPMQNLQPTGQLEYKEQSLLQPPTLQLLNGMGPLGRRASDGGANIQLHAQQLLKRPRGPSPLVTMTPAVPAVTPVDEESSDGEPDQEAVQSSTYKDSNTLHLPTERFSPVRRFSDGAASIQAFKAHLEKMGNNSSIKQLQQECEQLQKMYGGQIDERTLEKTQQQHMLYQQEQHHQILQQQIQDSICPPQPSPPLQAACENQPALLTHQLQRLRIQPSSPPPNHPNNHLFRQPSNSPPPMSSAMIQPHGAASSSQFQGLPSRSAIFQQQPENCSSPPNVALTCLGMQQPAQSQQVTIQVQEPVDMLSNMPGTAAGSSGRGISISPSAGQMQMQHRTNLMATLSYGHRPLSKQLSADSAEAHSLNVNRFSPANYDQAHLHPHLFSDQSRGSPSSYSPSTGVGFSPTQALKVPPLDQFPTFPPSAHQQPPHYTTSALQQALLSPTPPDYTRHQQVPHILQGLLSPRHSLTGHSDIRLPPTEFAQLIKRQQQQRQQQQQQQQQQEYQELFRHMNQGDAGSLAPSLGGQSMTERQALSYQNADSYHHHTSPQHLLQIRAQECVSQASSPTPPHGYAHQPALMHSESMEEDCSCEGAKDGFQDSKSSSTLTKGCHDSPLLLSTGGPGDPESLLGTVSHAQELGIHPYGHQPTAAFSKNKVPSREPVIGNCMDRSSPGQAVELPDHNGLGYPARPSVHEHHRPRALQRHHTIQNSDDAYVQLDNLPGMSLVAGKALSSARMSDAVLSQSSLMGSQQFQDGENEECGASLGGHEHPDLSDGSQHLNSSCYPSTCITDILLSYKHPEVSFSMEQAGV
T2 sequence (Q9H0K1 whole entry): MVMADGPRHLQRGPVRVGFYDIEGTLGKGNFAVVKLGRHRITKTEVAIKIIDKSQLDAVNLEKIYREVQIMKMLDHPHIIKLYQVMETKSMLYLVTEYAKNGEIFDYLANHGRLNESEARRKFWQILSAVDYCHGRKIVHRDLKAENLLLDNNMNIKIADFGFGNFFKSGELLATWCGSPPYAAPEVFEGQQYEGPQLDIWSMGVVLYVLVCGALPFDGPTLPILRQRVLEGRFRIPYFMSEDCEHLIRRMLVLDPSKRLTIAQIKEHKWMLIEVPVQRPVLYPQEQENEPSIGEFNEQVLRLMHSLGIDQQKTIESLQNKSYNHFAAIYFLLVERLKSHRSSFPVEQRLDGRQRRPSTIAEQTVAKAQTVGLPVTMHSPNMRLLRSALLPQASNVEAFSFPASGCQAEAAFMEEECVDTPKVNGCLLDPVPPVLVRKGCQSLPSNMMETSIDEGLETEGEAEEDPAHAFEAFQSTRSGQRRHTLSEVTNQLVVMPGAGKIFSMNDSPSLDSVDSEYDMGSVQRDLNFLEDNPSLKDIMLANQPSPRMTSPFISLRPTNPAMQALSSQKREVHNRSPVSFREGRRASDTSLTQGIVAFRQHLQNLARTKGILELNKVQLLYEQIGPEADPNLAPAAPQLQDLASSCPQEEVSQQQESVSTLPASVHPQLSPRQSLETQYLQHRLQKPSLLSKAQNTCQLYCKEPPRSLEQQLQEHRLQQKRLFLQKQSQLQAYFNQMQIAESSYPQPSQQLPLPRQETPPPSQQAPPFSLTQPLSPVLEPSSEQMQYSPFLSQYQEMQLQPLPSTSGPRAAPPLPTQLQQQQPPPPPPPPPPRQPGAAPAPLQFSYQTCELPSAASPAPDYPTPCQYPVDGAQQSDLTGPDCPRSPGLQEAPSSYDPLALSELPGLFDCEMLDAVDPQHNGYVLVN

Row | SMILES | IC50 (SIK1) [nM] | IC50 (SIK2) [nM] | IC50 (SIK3) [nM] | EC50 ([1]; 4 h) [nM] | IL-10 FCmax median [2] | EC50 [1] [nM]
1 | COc1cc(-c2cnc3cc(OC4C[C@H]5CC[C@@H](C4)N5CCC#N)ccn23)cc(OC(F)F)c1C(=O)NC1CC1 (stereo partly drawn) [Cpd 271, 4-[7-[[(1S,5R)-8-(2-cyanoethyl)-8-azabicyclo[3.2.1]octan-3-yl]oxy]imidazo[1,2-a]pyridin-3-yl]-N-cyclopropyl-2-(difluoromethoxy)-6-methoxy-benzamide] | 100 to 500 | 10 to 100 | 0.01 to 10 | 100 to 1000 | ++ (>1.5-4.5) | 
2 | COc1cc(-c2cnc3cc(OCCCN4CCN(C(C)C)CC4)ccn23)cc(OC(F)F)c1C(=O)NC1CC1 [Cpd 279, N-cyclopropyl-2-(difluoromethoxy)-4-[7-[3-(4-isopropylpiperazin-1-yl)propoxy]imidazo[1,2-a]pyridin-3-yl]-6-methoxy-benzamide] | 0.01 to 10 | 0.01 to 10 | 0.01 to 10 | 0.1 to 100 | +++ (>4.5) | 
3 | COc1cc(-c2cnc3cc(OCC4CCN(C(C)C)C4)ccn23)cc(OC(F)F)c1C(=O)NC1CC1 (centres unmarked) [Cpd 287, N-cyclopropyl-2-(difluoromethoxy)-4-[7-[(1-isopropylpyrrolidin-3-yl)methoxy]imidazo[1,2-a]pyridin-3-yl]-6-methoxy-benzamide] | 10 to 100 | 0.01 to 10 | 0.01 to 10 | 0.1 to 100 | ++ (>1.5-4.5) | 
4 | COc1cc(-c2cnc3cc(OCC4CCN(C5COC5)C4)ccn23)cc(OC(F)F)c1C(=O)NC1CC1 (centres unmarked) [Cpd 288, N-cyclopropyl-2-(difluoromethoxy)-6-methoxy-4-[7-[[1-(oxetan-3-yl)pyrrolidin-3-yl]methoxy]imidazo[1,2-a]pyridin-3-yl]benzamide] | 10 to 100 | 0.01 to 10 | 0.01 to 10 | 0.1 to 100 | +++ (>4.5) | 
5 | COc1cc(-c2cnc3cc(OC[C@H]4CCCNC4)ccn23)cc(OC(F)F)c1C(=O)NC1CC1 [Cpd 315, N-cyclopropyl-2-(difluoromethoxy)-6-methoxy-4-[7-[[(3S)-3-piperidyl]methoxy]imidazo[1,2-a]pyridin-3-yl]benzamide] | 10 to 100 | 0.01 to 10 | 0.01 to 10 | 100 to 1000 | ++ (>1.5-4.5) | 
6 | COc1cc(-c2cnc3cc(OCC4CN(CC#N)C4)ccn23)cc(OC(F)F)c1C(=O)NC1CC1 [Cpd 322, 4-[7-[[1-(cyanomethyl)azetidin-3-yl]methoxy]imidazo[1,2-a]pyridin-3-yl]-N-cyclopropyl-2-(difluoromethoxy)-6-methoxy-benzamide] | 10 to 100 | 0.01 to 10 | 0.01 to 10 |  | ++ (>1.5-4.5) | 0.1 to 100

The next lines start with results.

Row | IC50 (SIK1) [nM] | IC50 (SIK2) [nM] | IC50 (SIK3) [nM] | EC50 ([1]; 4 h) [nM] | SMILES | IL-10 FCmax median [2] | EC50 [1] [nM]
7 | 10 to 100 | 0.01 to 10 | 0.01 to 10 | 0.1 to 100 | COc1cc(-c2cnc3cc(OCC4CN(CCC#N)C4)ccn23)cc(OC(F)F)c1C(=O)NC1CC1 [Cpd 323, 4-[7-[[1-(2-cyanoethyl)azetidin-3-yl]methoxy]imidazo[1,2-a]pyridin-3-yl]-N-cyclopropyl-2-(difluoromethoxy)-6-methoxy-benzamide] | +++ (>4.5) | 
8 | 10 to 100 | 0.01 to 10 | 0.01 to 10 | 100 to 1000 | COc1cc(-c2cnc3cc(OC[C@@H]4CCNC4)ccn23)cc(OC(F)F)c1C(=O)NC1CC1 [Cpd 334, N-cyclopropyl-2-(difluoromethoxy)-6-methoxy-4-[7-[[(3R)-pyrrolidin-3-yl]methoxy]imidazo[1,2-a]pyridin-3-yl]benzamide] | ++ (>1.5-4.5) | 
9 | 10 to 100 | 0.01 to 10 | 0.01 to 10 | 100 to 1000 | COc1cc(-c2cnc3cc(OC[C@@H]4CCCNC4)ccn23)cc(OC(F)F)c1C(=O)NC1CC1 [Cpd 335, N-cyclopropyl-2-(difluoromethoxy)-6-methoxy-4-[7-[[(3R)-3-piperidyl]methoxy]imidazo[1,2-a]pyridin-3-yl]benzamide] | +++ (>4.5) | 
10 | 10 to 100 | 0.01 to 10 | 0.01 to 10 | 100 to 1000 | COc1cc(-c2cnc3cc(OC[C@@H]4CCN(CCO)C4)ccn23)cc(OC(F)F)c1C(=O)NC1CC1 [Cpd 349, N-cyclopropyl-2-(difluoromethoxy)-4-[7-[[(3R)-1-(2-hydroxyethyl)pyrrolidin-3-yl]methoxy]imidazo[1,2-a]pyridin-3-yl]-6-methoxy-benzamide] | +++ (>4.5) | 
11 | 10 to 100 | 0.01 to 10 | 0.01 to 10 | 0.1 to 100 | COc1cc(-c2cnc3cc(OCCCN4CCC(F)(C(N)=O)CC4)ccn23)cc(OC(F)F)c1C(=O)NC1CC1 [Cpd 361, l-[3-[3-[4-(cyclopropylcarbamoyl)-3-(difluoromethoxy)-5-methoxy-phenyl]imidazo[1,2-a]pyridin-7-yl]oxypropyl]-4-fluoro-piperidine-4-carboxamide] | ++ (>1.5-4.5) | 
12 | 10 to 100 | 0.01 to 10 | 0.01 to 10 | 1000 to 5000 | COc1cc(-c2cnc3cc(OCCCN4CCC(F)(C(=O)O)CC4)ccn23)cc(OC(F)F)c1C(=O)NC1CC1 [Cpd 366, 1-[3-[3-[4-(cyclopropylcarbamoyl)-3-(difluoromethoxy)-5-methoxy-phenyl]imidazo[1,2-a]pyridin-7-yl]oxypropyl]-4-fluoro-piperidine-4-carboxylic acid] | ++ (>1.5-4.5) | 
13 | 10 to 100 | 0.01 to 10 | 0.01 to 10 | 100 to 1000 | COc1cc(-c2cnc3cc(OC[C@@H]4CCCN(CCO)C4)ccn23)cc(OC(F)F)c1C(=O)NC1CC1 [Cpd 370, N-cyclopropyl-2-(difluoromethoxy)-4-[7-[[(3R)-1-(2-hydroxyethyl)-3-piperidyl]methoxy]imidazo [1,2-a]pyridin-3-yl]-6-methoxy-benzamide] | ++ (>1.5-4.5) | 
